Laboratory results: patent publication US11084814B2, “Pyrido[3, 4-d]pyrimidine derivative and pharmaceutically acceptable salt thereof” (Teijin Pharma Limited, priority 2016, dated 2021)

What was measured:
CDK4/cyclin D3 = target: T1, CDK4/cyclin D3 (Homo sapiens, UniProt P11802); assay: Human CDK4/cyclin D3 inhibitory activity (QS S Assist CDK4/Cyclin D3_FP Kit, IMAP fluorescent polarization); format: biochemical; conditions: read-out: CDK4 Activity symbol
T1 construct: purchased Carna Biosciences, Inc. QS S Assist CDK4/Cyclin D3_FP Kit
How it was run: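 Kinase reactions used kit CDK4/cyclin D3 at 12.5–25 ng/well with the kit ATP/substrate/metal mix in 20 mM HEPES (pH 7.4), 0.01% Tween20 and 2 mM DTT, run 45 min at room temperature. Phosphorylation was detected by IMAP fluorescence polarization (ex 485/em 535 nm) after 30 min binding in the dark. IC50 was fitted from percent inhibition against DMSO controls with and without enzyme.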

CDK2/cyclin A2 = target: T2, CDK2/cyclin A2 (Homo sapiens, UniProt P24941); assay: Human CDK2/cyclin A2 inhibitory activity (QS S Assist CDK2/Cyclin A2_FP Kit, IMAP fluorescent polarization); format: biochemical; conditions: read-out: CDK2 Activity symbol
T2 construct: purchased Carna Biosciences, Inc. QS S Assist CDK2/Cyclin A2_FP Kit
How it was run: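 Kit CDK2/cyclin A2 (2.5 ng/well) was reacted with kit ATP/substrate/metal in 20 mM HEPES pH 7.4, 0.01% Tween 20 and 2 mM DTT for 60 min at room temperature. IMAP binding reagent was added for 30 min, then fluorescence polarization was read at 485/535 nm. IC50 came from dose-response fitting of percent inhibition.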

T1 sequence (P11802 whole entry): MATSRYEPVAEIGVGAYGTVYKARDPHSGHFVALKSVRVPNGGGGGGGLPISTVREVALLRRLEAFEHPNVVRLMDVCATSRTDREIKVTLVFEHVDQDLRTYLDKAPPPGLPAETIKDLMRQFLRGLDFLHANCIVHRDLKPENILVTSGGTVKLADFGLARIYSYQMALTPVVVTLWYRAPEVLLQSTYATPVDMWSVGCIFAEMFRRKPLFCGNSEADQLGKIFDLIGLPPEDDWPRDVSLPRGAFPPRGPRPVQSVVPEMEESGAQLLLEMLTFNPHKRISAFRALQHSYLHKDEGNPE
T1 sequence (P30281 whole entry partner): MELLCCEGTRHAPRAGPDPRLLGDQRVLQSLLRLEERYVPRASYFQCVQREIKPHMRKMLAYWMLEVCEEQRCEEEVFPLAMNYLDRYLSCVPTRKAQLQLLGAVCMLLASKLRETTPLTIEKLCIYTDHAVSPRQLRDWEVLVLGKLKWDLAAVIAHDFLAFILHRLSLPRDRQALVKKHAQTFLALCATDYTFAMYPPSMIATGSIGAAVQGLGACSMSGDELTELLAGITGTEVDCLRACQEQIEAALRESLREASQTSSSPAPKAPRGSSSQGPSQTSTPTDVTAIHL

Row | IC50 (CDK4/cyclin D3) | IC50 (CDK2/cyclin A2) | SMILES
1 | < 10 nM | ≥ 100 nM | C[C@@H](O)c1cc2cnc(Nc3ccc(CN4CCN(CCO)CC4)cn3)nc2c(N2CCC[C@H](F)C2)n1 [Compound 180]
2 | < 10 nM | ≥ 100 nM | C[C@@H](O)c1cc2cnc(Nc3ccc(OC4CCN(CCO)CC4)cn3)nc2c(N2CCCCC2)n1 [Compound 165]
3 | < 10 nM | ≥ 100 nM | Cc1nc(Nc2ncc3cc([C@@H](C)O)nc(N4CCOC[C@@H]4C)c3n2)ccc1N1CCNCC1 [Compound 296]
4 | < 10 nM | ≥ 100 nM | C[C@@H](O)c1cc2cnc(Nc3ccc4c(n3)CCNC4)nc2c(N2CCC(F)CC2)n1 [Compound 63]
5 | < 10 nM | 10 to 100 nM | C[C@@H](O)c1cc2cnc(Nc3ccc(C(=O)N4CCN(C)CC4)cn3)nc2c(N2CCCCCC2)n1 [Compound 319]
6 | < 10 nM | ≥ 100 nM | OCCN1CCN(Cc2ccc(Nc3ncc4cc(CO)nc(N5CCCCC5)c4n3)nc2)CC1 [Compound 96]
7 | < 10 nM | ≥ 100 nM | O=C1CNCCCN1c1ccc(Nc2ncc3cc(C4COC4)nc(N4CCCCC4)c3n2)nc1 [Compound 323]
8 | < 10 nM | ≥ 100 nM | C[C@@H](O)c1cc2cnc(Nc3ccc(N4CCNCC4=O)cn3)nc2c(N2CCC(F)CC2)n1 [Compound 90]
9 | < 10 nM | ≥ 100 nM | C[C@@H](O)c1cc2cnc(Nc3ccc4c(n3)CCN(C3CCOCC3)C4)nc2c(N2CCCCC2)n1 [Compound 282]
10 | < 10 nM | ≥ 100 nM | C[C@@H](O)c1cc2cnc(Nc3ccc(O[C@H]4CCCNC4)cn3)nc2c(N2CCCCC2)n1 [Compound 241]
11 | < 10 nM | ≥ 100 nM | C[C@@H]1CCN(c2nc([C@@H](C)O)cc3cnc(Nc4ccc(CN5CCN(CCO)CC5)cn4)nc23)C1 [Compound 100]
12 | 10 to 100 nM | ≥ 100 nM | CO[C@H](C)c1cc2cnc(Nc3ccc(N4CCN(C)CC4)nn3)nc2c(N2CCC(F)CC2)n1 [Compound 125]
13 | 10 to 100 nM | ≥ 100 nM | C[C@@H](O)c1cc2cnc(Nc3ccc(CN4CCC(O)CC4)cn3)nc2c(N2CCCC2)n1 [Compound 66]
14 | 10 to 100 nM | ≥ 100 nM | C[C@@H](O)c1cc2cnc(Nc3ccc(CN4CCN(CCO)CC4)cn3)nc2c(N2CCOCC2)n1 [Compound 58]
15 | < 10 nM | ≥ 100 nM | C[C@@H](O)c1cc2cnc(Nc3ccc(O[C@H]4CCCN(CCO)C4)cn3)nc2c(N2CCCCC2)n1 [Compound 252]
16 | 10 to 100 nM | ≥ 100 nM | CN1CCN(c2ccc(Nc3ncc4cc(C(F)F)nc(N5CCOCC5)c4n3)nc2)CC1 [Compound 4]
17 | < 10 nM | ≥ 100 nM | CN1CCN(c2ccc(Nc3ncc4cc(CO)nc(N5CCOCC5)c4n3)nc2)CC1 [Compound 1]
18 | < 10 nM | ≥ 100 nM | c1cc(N2CCNCC2)nnc1Nc1ncc2cc(C3CCOC3)nc(N3CCCCC3)c2n1 (stereo not drawn) [Compound 208]
19 | < 10 nM | ≥ 100 nM | C[C@@H](O)c1cc2cnc(Nc3ccc(CN4CCN(C)CC4)cn3)nc2c(N2CCCC2)n1 [Compound 55]
20 | 10 to 100 nM | ≥ 100 nM | COCc1cc2cnc(Nc3ccc(N4CCNCC4)cn3)nc2c(N2CCOCC2)n1 [Compound 32]
21 | < 10 nM | ≥ 100 nM | OCCc1cc2cnc(Nc3ccc(N4CCNCC4)nn3)nc2c(N2CCCCC2)n1 [Compound 94]

Row | IC50 (CDK4/cyclin D3) | IC50 (CDK2/cyclin A2) | SMILES
22 | < 10 nM | ≥ 100 nM | C[C@@H](O)c1cc2cnc(Nc3ccc(CN4CCN(C)CC4)cn3)nc2c(N2CCC(F)(F)CC2)n1 [Compound 150]
23 | < 10 nM | ≥ 100 nM | Cc1nc(Nc2ncc3cc([C@@H](C)O)nc(N4CCCCC4)c3n2)ccc1N1CCN(C2CN(C)C2)CC1 [Compound 334]
24 | < 10 nM | ≥ 100 nM | C[C@@H](O)c1cc2cnc(Nc3ccc4c(n3)CCN(C(=O)CN3CC5(CC(O)C5)C3)C4)nc2c(N2CCCCC2)n1 [Compound 268]
25 | < 10 nM | ≥ 100 nM | CC(O)c1cc2cnc(Nc3ccc(N4CCNCC4)cn3)nc2c(N2CCCCC2)n1 (stereo not drawn) [Compound 24]
26 | < 10 nM | ≥ 100 nM | Cc1nc(Nc2ncc3cc([C@@H](C)O)nc(N4CCCCC4)c3n2)ccc1N1CCNCC1 [Compound 87]
27 | < 10 nM | ≥ 100 nM | CO[C@H](C)c1cc2cnc(Nc3ccc(N4CCNCC4)nn3)nc2c(N2CCCCC2)n1 [Compound 118]
28 | < 10 nM | ≥ 100 nM | C[C@@H](O)c1cc2cnc(Nc3ccc(CN4CCN(C)CC4)cn3)nc2c(N2CCOCC2(C)C)n1 [Compound 322]
29 | < 10 nM | ≥ 100 nM | C[C@@H](O)c1cc2cnc(Nc3ccc(N4CCNCC4=O)cn3)nc2c(N2CCC(F)(F)CC2)n1 [Compound 64]
30 | 10 to 100 nM | ≥ 100 nM | C[C@H](CO)c1cc2cnc(Nc3ccc4c(n3)CCN(CCO)C4)nc2c(N2CCCCC2)n1 [Compound 193]
31 | < 10 nM | ≥ 100 nM | C[C@@H](O)c1cc2cnc(Nc3ccc(O[C@H]4CCCNC4)cn3)nc2c(N2CC[C@@H](F)C2)n1 [Compound 250]
32 | < 10 nM | ≥ 100 nM | Cc1nc(Nc2ncc3cc([C@@H](C)O)nc(N4CCCC4)c3n2)ccc1N1CCNCC1 [Compound 86]
33 | 10 to 100 nM | ≥ 100 nM | C[C@@H](O)c1cc2cnc(Nc3ccc(N4CCNCC4=O)cn3)nc2c(-c2ccccc2)n1 [Compound 191]
34 | < 10 nM | ≥ 100 nM | C[C@@H](O)c1cc2cnc(Nc3ccc4c(n3)CCN(C(=O)[C@@H]3CCCNC3)C4)nc2c(N2CCCCC2)n1 [Compound 214]
35 | < 10 nM | ≥ 100 nM | C[C@@H](O)c1cc2cnc(Nc3ccc(CN4CCN(CCO)CC4)cn3)nc2c(N2CCCCC2)n1 [Compound 49]
36 | 10 to 100 nM | ≥ 100 nM | CCC(O)c1cc2cnc(Nc3ccc(N4CCNCC4)cn3)nc2c(N2CCOCC2)n1 (stereo not drawn) [Compound 34]
37 | 10 to 100 nM | ≥ 100 nM | C[C@@H](O)c1cc2cnc(Nc3ccc(CN4CCN(CCO)CC4)cn3)nc2c(-c2ccccc2)n1 [Compound 190]
38 | < 10 nM | ≥ 100 nM | C[C@@H](O)c1cc2cnc(Nc3ccc(N4CCNCC4)nn3)nc2c(N2CCCCC2C(=O)O)n1 (stereo partly drawn) [Compound 41]
39 | < 10 nM | ≥ 100 nM | C[C@@H](O)c1cc2cnc(Nc3ccc(OC4CCNCC4)cn3)nc2c(N2CCC[C@H](F)C2)n1 [Compound 243]
40 | < 10 nM | ≥ 100 nM | C[C@@H](O)c1cc2cnc(Nc3ccc(N4CCN(CCO)CCC4=O)cn3)nc2c(N2CCCCC2)n1 [Compound 151]
41 | 10 to 100 nM | ≥ 100 nM | C[C@@H](O)c1cc2cnc(Nc3ccc(CN4CCN(CCO)CC4)cn3)nc2c(N2CCC2)n1 [Compound 47]

Row | SMILES | IC50 (CDK4/cyclin D3) | IC50 (CDK2/cyclin A2)
42 | C[C@@H](O)c1cc2cnc(Nc3ccc(OC4CCNCC4)cn3)nc2c(N2C3CCC2CC3)n1 [Compound 220] | < 10 nM | ≥ 100 nM
43 | C[C@@H](O)c1cc2cnc(Nc3ccc4c(n3)CCN(C(=O)CN3CC(O)C3)C4)nc2c(N2C3CCC2CC3)n1 [Compound 229] | < 10 nM | ≥ 100 nM
44 | C[C@@H](O)c1cc2cnc(Nc3ccc4c(n3)CCN(C(=O)[C@H]3CCN(C)C3)C4)nc2c(N2C3CCC2CC3)n1 [Compound 225] | < 10 nM | ≥ 100 nM
45 | CC(O)c1cc2cnc(Nc3ccc4c(n3)CCN(C(=O)CN3CC5(COC5)C3)C4)nc2c(N2C3CCC2CC3)n1 (stereo not drawn) [Compound 236] | < 10 nM | ≥ 100 nM
